One may read the IC50 as the concentration that inhibits the measured activity by half. A low value points to inhibition by little substance.

The target in the assay is T1, human Npt2a (Homo sapiens, UniProt Q06495).
T1 construct: expressed in transfected cells
T1 sequence (Q06495 1-639): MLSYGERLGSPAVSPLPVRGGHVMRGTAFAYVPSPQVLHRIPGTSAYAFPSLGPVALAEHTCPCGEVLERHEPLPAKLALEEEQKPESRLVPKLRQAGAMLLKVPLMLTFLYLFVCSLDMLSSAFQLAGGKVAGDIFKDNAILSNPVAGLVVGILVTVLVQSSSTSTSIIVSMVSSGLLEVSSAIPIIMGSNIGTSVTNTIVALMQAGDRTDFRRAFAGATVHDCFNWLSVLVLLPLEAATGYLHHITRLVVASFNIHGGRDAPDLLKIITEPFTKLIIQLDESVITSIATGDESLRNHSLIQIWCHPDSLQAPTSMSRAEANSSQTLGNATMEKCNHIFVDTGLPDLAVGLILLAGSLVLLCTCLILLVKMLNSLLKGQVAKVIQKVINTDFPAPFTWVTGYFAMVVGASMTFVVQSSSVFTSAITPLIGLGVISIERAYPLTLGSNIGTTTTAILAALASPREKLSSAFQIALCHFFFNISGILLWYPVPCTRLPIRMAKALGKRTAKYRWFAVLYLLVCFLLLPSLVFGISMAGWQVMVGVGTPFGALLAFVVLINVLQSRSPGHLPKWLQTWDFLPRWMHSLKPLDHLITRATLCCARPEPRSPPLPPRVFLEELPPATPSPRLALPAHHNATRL
Kind of assay: Npt2a activity cell based assay, membrane potential dye, CHO T-REx hNpt2a cells. Particulars: doxycycline-induced, depolarization by sodium phosphate influx, average or median values if tested more than once. The method in brief:
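Doxycycline-induced (0.5 μg/mL, 24 h) CHO T-REx cells were loaded with membrane potential dye in sodium-free NHE buffer (pH 7.4) and exposed to compound (50 μM–1 nM, 5 min, room temperature).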
`CCOC(=O)c1c(C)nn(-c2cc(Nc3c(C)c(-c4ccc(C(F)F)cc4)nn3CC3CC3)ncn2)c1C` [Example 454, ethyl 1-[6-({1-(cyclopropylmethyl)-3-[4-(difluoromethyl)phenyl]-4-methyl-1H-pyrazol-5-yl}amino)pyrimidin-4-yl]-3,5-dimethyl-1H-pyrazole-4-carboxylate] displayed an IC50 of 11 nM. With `Cc1ccc(-c2nn(CC3CC3)c(Nc3cc(-n4nc(C)c(C(F)(F)F)c4C)ncn3)c2C)cn1` [Example 455, N-[1-(cyclopropylmethyl)-4-methyl-3-(6-methylpyridin-3-yl)-1H-pyrazol-5-yl]-6-[3,5-dimethyl-4-(trifluoromethyl)-1H-pyrazol-1-yl]pyrimidin-4-amine] the figure was 165 nM; with `Cc1nn(-c2cc(Nc3nn(C)c(-c4ccc(F)cc4)c3C)ncn2)c(C)c1C(O)CC(C)C` (centres unmarked) [Example 456, 1-[1-(6-{[5-(4-fluorophenyl)-1,4-dimethyl-1H-pyrazol-3-yl]amino}pyrimidin-4-yl)-3,5-dimethyl-1H-pyrazol-4-yl]-3-methylbutan-1-ol], 41 nM.

Turning to `Cc1cc(C)n(-c2cc(Nc3c(Cl)c(-c4ccccc4)nn3C)ncn2)n1` [Example 457, N-(4-chloro-1-methyl-3-phenyl-1H-pyrazol-5-yl)-6-(3,5-dimethyl-1H-pyrazol-1-yl)pyrimidin-4-amine], half-maximal inhibition (IC50) was put at 130 nM.

With `Cc1nn(-c2cc(Nc3c(C)c(-c4ccc(F)cn4)nn3CC3CC3)ncn2)c(C)c1C(C)(C)O` [Example 458, 2-[1-(6-{[1-(cyclopropylmethyl)-3-(5-fluoropyridin-2-yl)-4-methyl-1H-pyrazol-5-yl]amino}pyrimidin-4-yl)-3,5-dimethyl-1H-pyrazol-4-yl]propan-2-ol], the IC50 turned out to be 1550 nM. With `COc1c(C)nn(-c2cc(Nc3nn(C)c(-c4ccc(F)cn4)c3C)ncn2)c1C` [Example 461, N-[5-(5-fluoropyridin-2-yl)-1,4-dimethyl-1H-pyrazol-3-yl]-6-(4-methoxy-3,5-dimethyl-1H-pyrazol-1-yl)pyrimidin-4-amine] the figure was 170 nM; with `COc1c(-c2ccc(C#N)cc2)nn(C)c1Nc1cc(-n2nc(C)c(OC)c2C)ncn1` [Example 462, 4-(4-methoxy-5-{[6-(4-methoxy-3,5-dimethyl-1H-pyrazol-1-yl)pyrimidin-4-yl]amino}-1-methyl-1H-pyrazol-3-yl)benzonitrile], 25 nM; with `COc1c(C)nn(-c2cc(Nc3c(C)nn(-c4ccc(F)cc4)c3C)ncn2)c1C` [Example 463, N-[1-(4-fluorophenyl)-3,5-dimethyl-1H-pyrazol-4-yl]-6-(4-methoxy-3,5-dimethyl-1H-pyrazol-1-yl)pyrimidin-4-amine], 34 nM. `COc1c(C)nn(-c2cc(Nc3c(C)c(-c4ccc(C#N)cc4)nn3CC3CC3)ncn2)c1C` [Example 464, 4-[1-(cyclopropylmethyl)-5-{[6-(4-methoxy-3,5-dimethyl-1H-pyrazol-1-yl)pyrimidin-4-yl]amino}-4-methyl-1H-pyrazol-3-yl]benzonitrile] gave a half-maximal inhibitory concentration (IC50) of 2 nM.

Take `Cc1cc(C(F)F)n(-c2cc(Nc3c(C)c(-c4ccc(F)cn4)nn3C)ncn2)n1` [Example 465, 6-[5-(difluoromethyl)-3-methyl-1H-pyrazol-1-yl]-N-[3-(5-fluoropyridin-2-yl)-1,4-dimethyl-1H-pyrazol-5-yl]pyrimidin-4-amine]: the IC50 amounted to 170 nM.

On to `Cc1nn(-c2cc(Nc3c(C)c(-c4ccc(F)cc4)nn3CC3CC3)ncn2)c(C)c1[N+](=O)[O-]` [Example 466, N-[1-(cyclopropylmethyl)-3-(4-fluorophenyl)-4-methyl-1H-pyrazol-5-yl]-6-(3,5-dimethyl-4-nitro-1H-pyrazol-1-yl)pyrimidin-4-amine], for which the IC50 came out at 11 nM.

Regarding `Cc1cc(C)n(-c2cc(Nc3c(C)c(-c4ccc(F)cn4)nn3C)ncn2)n1` [Example 467, 6-(3,5-dimethyl-1H-pyrazol-1-yl)-N-[3-(5-fluoropyridin-2-yl)-1,4-dimethyl-1H-pyrazol-5-yl]pyrimidin-4-amine], it took 69 nM to reach half-maximal inhibition (IC50). The value for `COc1c(C)nn(-c2cc(Nc3c(C)c(-c4ccc(F)cn4)nn3C)ncn2)c1C` [Example 468, N-[3-(5-fluoropyridin-2-yl)-1,4-dimethyl-1H-pyrazol-5-yl]-6-(4-methoxy-3,5-dimethyl-1H-pyrazol-1-yl)pyrimidin-4-amine] was 300 nM. With `Cc1nn(-c2cc(Nc3nn(C)c(-c4ccc(F)cc4)c3OC(F)F)ncn2)c(C)c1C(F)(F)F` [Example 469, N-[4-(difluoromethoxy)-5-(4-fluorophenyl)-1-methyl-1H-pyrazol-3-yl]-6-[3,5-dimethyl-4-(trifluoromethyl)-1H-pyrazol-1-yl]pyrimidin-4-amine] the figure was 5 nM.

For the compound `COc1c(C)nn(-c2cc(Nc3nn(C)c(-c4ccc(F)cc4)c3OC(F)F)ncn2)c1C` [Example 470, N-[4-(difluoromethoxy)-5-(4-fluorophenyl)-1-methyl-1H-pyrazol-3-yl]-6-(4-methoxy-3,5-dimethyl-1H-pyrazol-1-yl)pyrimidin-4-amine], half-maximal inhibition (IC50) required 3 nM. The value for `Cc1nn(-c2cc(Nc3nn(C)c(-c4ccc(F)cc4)c3OC(F)F)ncn2)c(C)c1C#N` [Example 471, 1-(6-{[4-(difluoromethoxy)-5-(4-fluorophenyl)-1-methyl-1H-pyrazol-3-yl]amino}pyrimidin-4-yl)-3,5-dimethyl-1H-pyrazole-4-carbonitrile] was 7 nM; that for `Cc1c(-c2ccc(C#N)cc2)nn(C)c1Nc1cc(-n2[nH]c3c(c2=O)CCCC3)ncn1` [Example 472, 4-(1,4-dimethyl-5-{[6-(3-oxo-1,3,4,5,6,7-hexahydro-2H-indazol-2-yl)pyrimidin-4-yl]amino}-1H-pyrazol-3-yl)benzonitrile] was 880 nM. With `Cc1nn(-c2cc(Nc3c(C)c(-c4ccc(C(F)F)nc4)nn3C)ncn2)c(C)c1C(F)(F)F` [Example 473, N-{3-[6-(difluoromethyl)pyridin-3-yl]-1,4-dimethyl-1H-pyrazol-5-yl}-6-[3,5-dimethyl-4-(trifluoromethyl)-1H-pyrazol-1-yl]pyrimidin-4-amine] the figure was 160 nM; with `Cc1nn(-c2cc(Nc3c(C)c(-c4ccc(C(F)F)nc4)nn3C)ncn2)c(C)c1Cl` [Example 474, 6-(4-chloro-3,5-dimethyl-1H-pyrazol-1-yl)-N-{3-[6-(difluoromethyl)pyridin-3-yl]-1,4-dimethyl-1H-pyrazol-5-yl}pyrimidin-4-amine], 234 nM; with `Cc1cc(C(F)F)n(-c2cc(Nc3c(C)c(-c4ccc(OC(F)F)cc4)nn3CC3CC3)ncn2)n1` [Example 475, N-{1-(cyclopropylmethyl)-3-[4-(difluoromethoxy)phenyl]-4-methyl-1H-pyrazol-5-yl}-6-[5-(difluoromethyl)-3-methyl-1H-pyrazol-1-yl]pyrimidin-4-amine], 215 nM. Turning to `Cc1cc(C)n(-c2cc(Nc3c(C)c(-c4ccc(OC(F)F)cc4)nn3CC3CC3)ncn2)n1` [Example 476, N-{1-(cyclopropylmethyl)-3-[4-(difluoromethoxy)phenyl]-4-methyl-1H-pyrazol-5-yl}-6-(3,5-dimethyl-1H-pyrazol-1-yl)pyrimidin-4-amine], the IC50 was 29 nM.

On to `Cc1nn(-c2cc(Nc3c(C)c(-c4ccc(OC(F)F)cc4)nn3CC3CC3)ncn2)c(C)c1C#N` [Example 477, 1-[6-({1-(cyclopropylmethyl)-3-[4-(difluoromethoxy)phenyl]-4-methyl-1H-pyrazol-5-yl}amino)pyrimidin-4-yl]-3,5-dimethyl-1H-pyrazole-4-carbonitrile], for which half-maximal inhibition (IC50) was put at 98 nM. Turning to `Cc1nn(-c2cc(Nc3c(C)c(-c4ccc(OC(F)F)cc4)nn3CC3CC3)ncn2)c(C)c1C(F)(F)F` [Example 478, N-{1-(cyclopropylmethyl)-3-[4-(difluoromethoxy)phenyl]-4-methyl-1H-pyrazol-5-yl}-6-[3,5-dimethyl-4-(trifluoromethyl)-1H-pyrazol-1-yl]pyrimidin-4-amine], 45 nM corresponded to half-maximal inhibition (IC50). Compound `Cc1nn(-c2cc(Nc3nn(C)c(-c4ccc(F)cn4)c3C)ncn2)c(C)c1Cl` [Example 479, 6-(4-chloro-3,5-dimethyl-1H-pyrazol-1-yl)-N-[5-(5-fluoropyridin-2-yl)-1,4-dimethyl-1H-pyrazol-3-yl]pyrimidin-4-amine] returned an IC50 of 18 nM.

`CNc1ccc(-c2nn(CC3CC3)c(Nc3cc(-n4nc(C)cc4C)ncn3)c2C)cc1` [Example 480, N-{1-(cyclopropylmethyl)-4-methyl-3-[4-(methylamino)phenyl]-1H-pyrazol-5-yl}-6-(3,5-dimethyl-1H-pyrazol-1-yl)pyrimidin-4-amine]: 375 nM corresponded to half-maximal inhibition (IC50).

`Cc1cc(C(F)F)n(-c2cc(Nc3c(C)c(-c4ccc(C(F)F)nc4)nn3C)ncn2)n1` [Example 481, 6-[5-(difluoromethyl)-3-methyl-1H-pyrazol-1-yl]-N-{3-[6-(difluoromethyl)pyridin-3-yl]-1,4-dimethyl-1H-pyrazol-5-yl}pyrimidin-4-amine]: the IC50 amounted to 1400 nM.

The values are drawn from patent US11208400B2, “Substituted 6-(1H-pyrazol-1-yl)pyrimidin-4-amine derivatives and uses thereof” (Bayer Aktiengesellschaft, priority 2016, dated 2021).
